# Assay results published in ChEMBL document CHEMBL1201862, “PubChem BioAssay data set” (2004).
#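 Grown in 96-well plates, cells were treated for 48 hours with each compound at five concentrations. Insufficient inhibition: endpoint recorded as highest concentration tested. Abbreviation: GI50, concentration required for 50% inhibition of growth.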 Active and inactive are the calls of the source. Cut-off read from the data, not from the text of the source: active = GI50 up to about 1.1 µM and inactive = higher.
# Key:
# Experiment in all cases: NCI anticancer screen, dose series, 48 h
# DU-145 = test system: DU-145
# M14 = test system: M14
# MDA-N = test system: MDA-N
# OVCAR-8 = test system: OVCAR-8
# SN12C = test system: SN12C
# CCRF-CEM = test system: CCRF-CEM
# SNB-75 = test system: SNB-75
# MDA-MB-435 = test system: MDA-MB-435
# Hs-578T = test system: Hs-578T
# SK-OV-3 = test system: SK-OV-3
# SK-MEL-28 = test system: SK-MEL-28
# OVCAR-3 = test system: OVCAR-3
# MDA-MB-231 = test system: MDA-MB-231
# CAKI-1 = test system: CAKI-1
# MOLT-4 = test system: MOLT-4
# BT-549 = test system: BT-549
# PC-3 = test system: PC-3
# HL-60 = test system: HL-60
# HCT-116 = test system: HCT-116
# SW-620 = test system: SW-620
# SK-MEL-2 = test system: SK-MEL-2
# HOP-92 = test system: HOP-92
# UACC-257 = test system: UACC-257
# HOP-62 = test system: HOP-62
# LOX IMVI = test system: LOX IMVI
# TK-10 = test system: TK-10
# U-251 = test system: U-251
# RXF 393 = test system: RXF 393
# NCI-H23 = test system: NCI-H23
# A549 = test system: A549
# HT-29 = test system: HT-29
# NCI-H522 = test system: NCI-H522
# RPMI-8226 = test system: RPMI-8226
# SR = test system: SR
# 786-0 = test system: 786-0
# SF-268 = test system: SF-268
# KM12 = test system: KM12
# EKVX = test system: EKVX
# UO-31 = test system: UO-31
# A498 = test system: A498
# SNB-19 = test system: SNB-19
# K562 = test system: K562
# NCI-H226 = test system: NCI-H226
# NCI/ADR-RES = test system: NCI/ADR-RES
# MCF7 = test system: MCF7
# SF-295 = test system: SF-295
# T47D = test system: T47D
# COLO 205 = test system: COLO 205
# NCI-H460 = test system: NCI-H460
# SF-539 = test system: SF-539
# ACHN = test system: ACHN
# Malme-3M = test system: Malme-3M
# UACC-62 = test system: UACC-62
# IGROV-1 = test system: IGROV-1
# OVCAR-4 = test system: OVCAR-4
# HCT-15 = test system: HCT-15
# OVCAR-5 = test system: OVCAR-5
# SK-MEL-5 = test system: SK-MEL-5
smiles,measurement,setting,value
O=C1N/C(=N/N=C/c2ccccc2)N/C1=C\c1cccs1,GI50,DU-145,18.5 µM (inactive)
same,GI50,M14,29.3 µM (inactive)
same,GI50,MDA-N,8.32 µM (inactive)
same,GI50,OVCAR-8,13 µM (inactive)
same,GI50,SN12C,19.1 µM (inactive)
same,GI50,CCRF-CEM,13.3 µM (inactive)
same,GI50,SNB-75,22 µM (inactive)
same,GI50,MDA-MB-435,7.52 µM (inactive)
same,GI50,Hs-578T,2.77 µM (inactive)
same,GI50,SK-OV-3,18.6 µM (inactive)
same,GI50,SK-MEL-28,15.8 µM (inactive)
same,GI50,OVCAR-3,15.4 µM (inactive)
same,GI50,MDA-MB-231,18.6 µM (inactive)
same,GI50,CAKI-1,16.7 µM (inactive)
same,GI50,MOLT-4,27.5 µM (inactive)
same,GI50,BT-549,15.2 µM (inactive)
same,GI50,PC-3,10 µM (inactive)
same,GI50,HL-60,12.3 µM (inactive)
same,GI50,HCT-116,17.3 µM (inactive)
same,GI50,SW-620,11.7 µM (inactive)
same,GI50,SK-MEL-2,8.57 µM (inactive)
same,GI50,HOP-92,15.8 µM (inactive)
same,GI50,UACC-257,30.5 µM (inactive)
same,GI50,HOP-62,18.3 µM (inactive)
same,GI50,LOX IMVI,8.34 µM (inactive)
same,GI50,TK-10,23.1 µM (inactive)
same,GI50,U-251,15.6 µM (inactive)
same,GI50,RXF 393,17.7 µM (inactive)
same,GI50,NCI-H23,15.9 µM (inactive)
same,GI50,A549,25.6 µM (inactive)
same,GI50,HT-29,19.1 µM (inactive)
same,GI50,NCI-H522,1.98 µM (inactive)
same,GI50,RPMI-8226,16.8 µM (inactive)
same,GI50,SR,28.2 µM (inactive)
same,GI50,786-0,18.5 µM (inactive)
same,GI50,SF-268,9.89 µM (inactive)
same,GI50,KM12,18.4 µM (inactive)
same,GI50,EKVX,21.5 µM (inactive)
same,GI50,UO-31,21.8 µM (inactive)
same,GI50,A498,13 µM (inactive)
same,GI50,SNB-19,21.9 µM (inactive)
same,GI50,K562,12.2 µM (inactive)
same,GI50,NCI-H226,10.6 µM (inactive)
same,GI50,NCI/ADR-RES,15.2 µM (inactive)
same,GI50,MCF7,9.84 µM (inactive)
same,GI50,SF-295,17.4 µM (inactive)
same,GI50,T47D,28.2 µM (inactive)
same,GI50,COLO 205,8.13 µM (inactive)
same,GI50,NCI-H460,31.8 µM (inactive)
same,GI50,SF-539,10.4 µM (inactive)
same,GI50,ACHN,15.9 µM (inactive)
same,GI50,Malme-3M,8.99 µM (inactive)
same,GI50,UACC-62,20.1 µM (inactive)
same,GI50,IGROV-1,14.5 µM (inactive)
same,GI50,OVCAR-4,22.3 µM (inactive)
same,GI50,HCT-15,17.9 µM
same,GI50,OVCAR-5,28.6 µM (inactive)
same,GI50,SK-MEL-5,7.53 µM (inactive)
Nc1nc(=O)c2c([nH]1)NCC(CCNc1ccc(C(=O)O)cc1)N2 (stereo unspecified),GI50,DU-145,> 100 µM (inactive)
same,GI50,M14,> 100 µM (inactive)
same,GI50,MDA-N,> 100 µM (inactive)
same,GI50,OVCAR-8,> 100 µM (inactive)
same,GI50,SN12C,> 100 µM (inactive)
same,GI50,CCRF-CEM,> 100 µM (inactive)
same,GI50,SNB-75,> 100 µM (inactive)
same,GI50,MDA-MB-435,> 100 µM (inactive)
same,GI50,Hs-578T,> 100 µM (inactive)
same,GI50,SK-OV-3,> 100 µM (inactive)
same,GI50,SK-MEL-28,> 100 µM (inactive)
same,GI50,OVCAR-3,> 100 µM (inactive)
same,GI50,MDA-MB-231,> 100 µM (inactive)
same,GI50,CAKI-1,> 100 µM (inactive)
same,GI50,MOLT-4,> 100 µM (inactive)
same,GI50,BT-549,> 100 µM (inactive)
same,GI50,PC-3,> 100 µM (inactive)
same,GI50,HL-60,78 µM (inactive)
same,GI50,HCT-116,> 100 µM (inactive)
same,GI50,SW-620,> 100 µM (inactive)
same,GI50,SK-MEL-2,> 100 µM (inactive)
same,GI50,HOP-92,> 100 µM (inactive)
same,GI50,UACC-257,> 100 µM (inactive)
same,GI50,HOP-62,> 100 µM (inactive)
same,GI50,LOX IMVI,> 100 µM (inactive)
same,GI50,TK-10,> 100 µM (inactive)
same,GI50,U-251,> 100 µM (inactive)
same,GI50,RXF 393,> 100 µM (inactive)
same,GI50,NCI-H23,> 100 µM (inactive)
same,GI50,A549,> 100 µM (inactive)
same,GI50,HT-29,> 100 µM (inactive)
same,GI50,NCI-H522,> 100 µM (inactive)
same,GI50,RPMI-8226,> 100 µM (inactive)
same,GI50,SR,> 100 µM (inactive)
same,GI50,786-0,> 100 µM (inactive)
same,GI50,SF-268,> 100 µM (inactive)
same,GI50,KM12,> 100 µM (inactive)
same,GI50,EKVX,> 100 µM (inactive)
same,GI50,UO-31,> 100 µM (inactive)
same,GI50,A498,> 100 µM (inactive)
same,GI50,SNB-19,> 100 µM (inactive)
same,GI50,K562,> 100 µM (inactive)
same,GI50,NCI-H226,> 100 µM (inactive)
same,GI50,NCI/ADR-RES,> 100 µM (inactive)
same,GI50,MCF7,> 100 µM (inactive)
same,GI50,SF-295,> 100 µM (inactive)
same,GI50,T47D,> 100 µM (inactive)
same,GI50,COLO 205,> 100 µM (inactive)
same,GI50,NCI-H460,> 100 µM (inactive)
same,GI50,SF-539,> 100 µM (inactive)
same,GI50,ACHN,> 100 µM (inactive)
same,GI50,Malme-3M,> 100 µM (inactive)
same,GI50,UACC-62,> 100 µM (inactive)
same,GI50,IGROV-1,> 100 µM (inactive)
same,GI50,OVCAR-4,> 100 µM (inactive)
same,GI50,HCT-15,> 100 µM
same,GI50,OVCAR-5,> 100 µM (inactive)
same,GI50,SK-MEL-5,> 100 µM (inactive)
